According to patent US6376670B1, “Quinoline-indole antimicrobial agents, uses and compositions related thereto” (Sepracor Inc., priority 1997, dated 2002):
Read-outs that look alike come from different tables or passages of the source.

What was measured:
Assay in all cases: Determination of MIC values (BHI broth, 96 well microtiter plate)
Format in all cases: cell-based
[1] = system: methicillin-resistant Staphylococcus aureus (MRSA); conditions: Staphylococcus aureus, MRSA, read-out: MIC MRSA
Summary of the method: (§1)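 MIC is read as the lowest drug concentration showing no observable growth after roughly 16 hours at 37° C in approx. 7-10% CO2. Testing used BHI broth containing compound at 0.39–25 µg/mL final, inoculated with 10^5 to 10^6 cells/mL.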

[2] = system: Streptococcus pneumoniae; conditions: Streptococcus pneumoniae, read-out: MIC S. pneu
Summary of the method: as §1

[3] = system: vancomycin-resistant Enterococcus spp. (VRE); conditions: Enterococcus, VRE, read-out: MIC VREF
Summary of the method: as §1

[4] = S. pneu, BHI broth, overnight 37° C.
[5] = VREF, BHI broth, overnight 37° C.
[6] = 16 h, BHI broth, 37° C., about 16 hours
[7] = BHI broth, 37° C., about 16 hours

Structure (SMILES) | MIC [1, 6] | MIC [2, 7] | MIC [3, 6] | other results
Cn1cc(-c2cc(C(=O)NCc3ccc(CN)cc3)c3cc(C#CCN4CC=CC4)ccc3n2)c2cc(Br)ccc21 [Example 396] | – | – | – | MIC ([1]; BHI broth, overnight 37° C.): > 25 µg/mL; MIC [2, 4]: > 25 µg/mL; MIC [3, 5]: > 25 µg/mL
CN(CC#Cc1ccc2nc(-c3cn(C)c4ccc(Br)cc34)cc(C(=O)NCc3ccc(CN)cc3)c2c1)C1CCCCC1 [Example 397] | – | – | – | MIC ([1]; BHI broth, overnight 37° C.): < 7 µg/mL; MIC [2, 4]: < 7 µg/mL; MIC [3, 5]: < 7 µg/mL
CC(C)N(CC#Cc1ccc2nc(-c3cn(C)c4ccc(Br)cc34)cc(C(=O)NCc3ccc(CN)cc3)c2c1)C(C)C [Example 398] | – | – | – | MIC ([1]; BHI broth, overnight 37° C.): < 7 µg/mL; MIC [2, 4]: < 7 µg/mL; MIC [3, 5]: < 7 µg/mL
Cn1cc(-c2cc(C(=O)NCCN)c3cc(C#CCNCCc4ccccc4)ccc3n2)c2cc(Br)ccc21 [Example 399] | – | – | – | MIC ([1]; BHI broth, overnight 37° C.): < 7 µg/mL; MIC [2, 4]: < 7 µg/mL; MIC [3, 5]: < 7 µg/mL
Cn1cc(-c2cc(C(=O)NCCN)c3cc(C#CCN4CCc5ccccc5C4)ccc3n2)c2cc(Br)ccc21 [Example 404] | < 7 µg/mL | < 7 µg/mL | < 7 µg/mL | –
CN1CCN(CC#Cc2ccc3nc(-c4cn(C)c5ccc(Br)cc45)cc(C(=O)NCCN)c3c2)CC1 [Example 405] | < 25 µg/mL | < 25 µg/mL | < 25 µg/mL | –
Cc1cccc2ccc(-c3c[nH]c4ccc(C#N)cc34)nc12 [Example 409] | > 25 µg/mL | > 25 µg/mL | > 25 µg/mL | –
Cc1ccc2[nH]cc(-c3ccc4cccc(C)c4n3)c2c1 [Example 411] | > 25 µg/mL | > 25 µg/mL | > 25 µg/mL | –
COc1ccc2nc(-c3c[nH]c4ccc(Cl)cc34)ccc2c1 [Example 416] | < 7 µg/mL | < 7 µg/mL | > 25 µg/mL | –
C[Si](C)(C)CCOC(=O)n1cc(-c2nc3ccc(Cl)cc3c3c2CCO3)c2cc(Br)ccc21 [Example 421] | – | – | – | MIC ([1]; 16 h): > 25 µg/mL; MIC ([2]; 16 h): > 25 µg/mL; MIC ([3]; 16 h): > 25 µg/mL
Cc1cccc2ccc(-c3c[nH]c4cc(F)ccc34)nc12 [Example 423] | > 25 µg/mL | > 25 µg/mL | > 25 µg/mL | –
COc1ccc2[nH]c(C)c(-c3ccc4cccc(C)c4n3)c2c1 [Example 424] | < 25 µg/mL | < 25 µg/mL | > 25 µg/mL | –
Cc1[nH]c2ccc(Cl)cc2c1-c1ccc2cccc(C)c2n1 [Example 425] | < 7 µg/mL | < 7 µg/mL | < 7 µg/mL | –
Cc1ccc2[nH]c(C)c(-c3ccc4cccc(C)c4n3)c2c1 [Example 426] | < 25 µg/mL | < 25 µg/mL | > 25 µg/mL | –
Cc1cccc2ccc(-c3c[nH]c4ccc(Cl)cc34)nc12 [Example 427] | > 25 µg/mL | > 25 µg/mL | > 25 µg/mL | –
COc1ccc2nc(-c3c(C)[nH]c4ccc(Cl)cc34)ccc2c1 [Example 429] | < 7 µg/mL | < 7 µg/mL | > 25 µg/mL | –
COc1ccc2[nH]c(C)c(-c3ccc4cc(C)ccc4n3)c2c1 [Example 434] | > 25 µg/mL | > 25 µg/mL | > 25 µg/mL | –
Cc1ccc2nc(-c3c[nH]c4cc(Cl)ccc34)ccc2c1 [Example 436] | < 7 µg/mL | < 7 µg/mL | > 25 µg/mL | –
COc1ccc2[nH]cc(-c3ccc4cc(C)ccc4n3)c2c1 [Example 438] | > 25 µg/mL | > 25 µg/mL | > 25 µg/mL | –
Cc1ccc2nc(-c3c(C)[nH]c4ccc(C)cc34)ccc2c1 [Example 439] | > 25 µg/mL | > 25 µg/mL | > 25 µg/mL | –
OCc1cc(-c2c[nH]c3ccc(Br)cc23)nc2ccccc12 [Example 442] | < 7 µg/mL | < 7 µg/mL | < 25 µg/mL | –
OCc1cc(-c2c[nH]c3ccc(Br)cc23)nc2ccc(F)cc12 [Example 443] | < 7 µg/mL | < 7 µg/mL | < 25 µg/mL | –
OCc1cc(-c2c[nH]c3ccc(Br)cc23)nc2c(F)cccc12 [Example 444] | < 7 µg/mL | < 7 µg/mL | < 25 µg/mL | –
OCc1cc(-c2c[nH]c3ccc(Br)cc23)nc2ccc(Br)cc12 [Example 445] | < 7 µg/mL | < 7 µg/mL | < 7 µg/mL | –

More lines, main results first:

MIC [1, 6] | MIC [2, 7] | MIC [3, 6] | Structure (SMILES) | other results
< 7 µg/mL | < 7 µg/mL | < 7 µg/mL | Cn1cc(-c2cc(C(=O)NCCN)c3cc(C#CCNCCc4ccc(Cl)cc4)ccc3n2)c2cc(Br)ccc21 [Example 400] | –
< 7 µg/mL | < 7 µg/mL | < 7 µg/mL | Cn1cc(-c2cc(C(=O)NCCN)c3cc(C#CCNCC4CCCCC4)ccc3n2)c2cc(Br)ccc21 [Example 401] | –
< 7 µg/mL | < 7 µg/mL | < 7 µg/mL | CN(C)CCNCC#Cc1ccc2nc(-c3cn(C)c4ccc(Br)cc34)cc(C(=O)NCCN)c2c1 [Example 402] | –
< 7 µg/mL | < 7 µg/mL | < 7 µg/mL | Cn1cc(-c2cc(C(=O)NCCN)c3cc(C#CCN4CCCC4)ccc3n2)c2cc(Br)ccc21 [Example 403] | –
< 7 µg/mL | < 7 µg/mL | < 7 µg/mL | Cn1cc(-c2cc(C(=O)NCCN)c3cc(C#CCN4CC=CC4)ccc3n2)c2cc(Br)ccc21 [Example 406] | –
< 7 µg/mL | < 7 µg/mL | < 7 µg/mL | CN(CC#Cc1ccc2nc(-c3cn(C)c4ccc(Br)cc34)cc(C(=O)NCCN)c2c1)C1CCCCC1 [Example 407] | –
< 7 µg/mL | < 7 µg/mL | < 7 µg/mL | CC(C)N(CC#Cc1ccc2nc(-c3cn(C)c4ccc(Br)cc34)cc(C(=O)NCCN)c2c1)C(C)C [Example 408] | –
< 25 µg/mL | < 25 µg/mL | > 25 µg/mL | Cc1cccc2ccc(-c3c[nH]c4cc(Cl)ccc34)nc12 [Example 410] | –
< 7 µg/mL | > 25 µg/mL | > 25 µg/mL | COc1ccc2nc(-c3c[nH]c4ccc(Br)cc34)ccc2c1 [Example 412] | –
> 25 µg/mL | > 25 µg/mL | > 25 µg/mL | COc1ccc2nc(-c3c[nH]c4cc(F)ccc34)ccc2c1 [Example 413] | –
> 25 µg/mL | > 25 µg/mL | > 25 µg/mL | COc1ccc2nc(-c3c[nH]c4cc(Cl)ccc34)ccc2c1 [Example 414] | –
< 7 µg/mL | > 25 µg/mL | > 25 µg/mL | COc1ccc2nc(-c3c[nH]c4ccc(C)cc34)ccc2c1 [Example 415] | –
> 25 µg/mL | > 25 µg/mL | > 25 µg/mL | Cc1cccc2ccc(-c3c[nH]c4ccc(Br)cc34)nc12 [Example 422] | –
> 25 µg/mL | > 25 µg/mL | > 25 µg/mL | COc1ccc2nc(-c3c(C)[nH]c4ccc(OC)cc34)ccc2c1 [Example 428] | –
< 25 µg/mL | < 25 µg/mL | > 25 µg/mL | COc1ccc2nc(-c3c[nH]c4ccc(OC)cc34)ccc2c1 [Example 430] | –
> 25 µg/mL | > 25 µg/mL | > 25 µg/mL | COc1ccc2nc(-c3c(C)[nH]c4ccc(C)cc34)ccc2c1 [Example 431] | –
< 7 µg/mL | < 7 µg/mL | > 25 µg/mL | Cc1ccc2nc(-c3c[nH]c4ccc(Br)cc34)ccc2c1 [Example 432] | –
> 25 µg/mL | > 25 µg/mL | > 25 µg/mL | Cc1ccc2nc(-c3c[nH]c4cc(F)ccc34)ccc2c1 [Example 435] | –
< 7 µg/mL | < 7 µg/mL | > 25 µg/mL | Cc1ccc2nc(-c3c(C)[nH]c4ccc(Cl)cc34)ccc2c1 [Example 437] | –
> 25 µg/mL | < 25 µg/mL | > 25 µg/mL | Cc1ccc2nc(-c3c[nH]c4ccc(C)cc34)ccc2c1 [Example 440] | –
> 25 µg/mL | > 25 µg/mL | > 25 µg/mL | Cc1ccc2nc(-c3c[nH]c4ccc(Cl)cc34)ccc2c1 [Example 441] | –
